“And” between values parts separate entries of the source, which are not always exact repeats. Equal values may be shown once.
What was measured:
Assay type in all cases: in vivo
[1] = test system: Fimbristylis miliacea (L.) VAHL (FIMMI); assay: Postemergence herbicidal mixtures for weed control in direct seeded rice (greenhouse, visual % injury); settings: FIMMI
Scirpus species (SCPSS) = assay: Herbicidal mixtures for weed control in transplanted paddy rice (in-water application, visual % injury); settings: SCPJU
How it was run: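 Weeds sown in flooded puddled mineral soil (pH ~7.3–7.8, ~1.0% organic matter) and treated at second–third true leaf stage by injecting acetone/2.5% Agri-dex stock into the paddy water. A, C and D dosed as acid equivalent, partner herbicides as active ingredient. Injury scored visually after 3 weeks in greenhouse, 0–100% versus untreated plants.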

Cyperus species (CYPSS) = assay: as above; settings: for % Injury CYPES Ob: CYPES = Cyperus esculentus
How it was run: (§1)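 Weeds were sown in puddled mineral soil (pH about 7.3 to 7.8, about 1.0 percent organic matter) and grown under a paddy flood in a greenhouse at about 29/26° C to the second or third true leaf stage. Compounds in acetone with Agri-dex crop oil were injected into the floodwater. Injury was rated visually after 3 weeks.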

[2] = test system: Marsilea crenata PRESL (MASCR); assay: as above
How it was run: as §1

[3] = test system: Leptochloa chinensis (L.) NEES (LEFCH); assay: as above
How it was run: as §1

Cyperus iria L. (CYPIR) = assay: Postemergence herbicidal mixtures for weed control in direct seeded rice (greenhouse, visual % injury); settings: for % Injury Ob: CYPIR
[4] = Compound A Methyl 17.5 g/ha alone
[5] = Compound A Methyl 35 g/ha alone
[6] = Quinclorac 140 g/ha alone (Compound A Methyl half)
[7] = Quinclorac 140 g/ha alone (Compound A TEA half)

## COC(=O)c1nc(-c2ccc(Cl)c(OC)c2F)cc(N)c1Cl [Compound A Methyl, 4-amino-3-chloro-6-(4-chloro-2-fluoro-3-methoxyphenyl)pyridine-2-carboxylic acid methyl ester]
[1]; 4.38 g/ha alone
  % Injury Ob: 20%
[1]; 8.75 g/ha alone
  % Injury Ob: 40%
Scirpus species (SCPSS); 17.5 g/ha alone
  % Injury Ob: 90%
Cyperus species (CYPSS); [4]
  % Injury CYPES Ob: 50%
Cyperus species (CYPSS); Compound A Methyl 35 g/ha alone (Table 112)
  % Injury CYPES Ob: 60%
Cyperus species (CYPSS); CYPES, 4.38 g/ha alone
  % Injury Ob: 0%
Cyperus species (CYPSS); CYPES, 8.75 g/ha alone
  % Injury Ob: 15%
[2]; [4]
  % Injury MASCR Ob: 0%
[2]; [5]
  % Injury MASCR Ob: 50%
[3]; 8.75 g/ha alone
  % Injury Ob: 0%
[3]; 17.5 g/ha alone
  % Injury Ob: 0%
[3]; 35 g/ha alone
  % Injury Ob: 0%
[3]; [4]
  % Injury LEFCH Ob: 10%
[3]; [5]
  % Injury LEFCH Ob: 20%
Cyperus iria L. (CYPIR); 35 g/ha alone
  % Injury Ob: 50%
Cyperus iria L. (CYPIR); alone 4.38 g/ha
  % Injury CYPIR Ob: 70%
Cyperus iria L. (CYPIR); alone 35 g/ha
  % Injury CYPIR Ob: 50%

## COc1c(Cl)ccc(-c2cc(N)c(Cl)c(C(=O)O)n2)c1F [Compound A TEA, 4-amino-3-chloro-6-(4-chloro-2-fluoro-3-methoxyphenyl)pyridine-2-carboxylic acid]
Scirpus species (SCPSS); 17.5 g/ha alone
  % Injury Ob: 60%
Scirpus species (SCPSS); 35 g/ha alone
  % Injury Ob: 85%
Scirpus species (SCPSS); 70 g/ha alone
  % Injury Ob: 95%
Cyperus species (CYPSS); Compound A TEA 17.5 g/ha alone
  % Injury CYPES Ob: 30%
Cyperus species (CYPSS); Compound A TEA 17.5 g/ha alone (Table 112)
  % Injury CYPES Ob: 30%
Cyperus species (CYPSS); Compound A TEA 35 g/ha alone (Table 112)
  % Injury CYPES Ob: 70%
Cyperus species (CYPSS); CYPES, 35 g/ha alone
  % Injury Ob: 20% and 25%
Cyperus species (CYPSS); CYPES, 70 g/ha alone
  % Injury Ob: 50%
Cyperus species (CYPSS); CYPIR, 35 g/ha alone
  % Injury Ob: 10%
Cyperus species (CYPSS); CYPIR, 70 g/ha alone
  % Injury Ob: 20%
[2]; Compound A TEA 35 g/ha alone
  % Injury MASCR Ob: 60%
[3]; 35 g/ha alone
  % Injury Ob: 80%
[3]; 70 g/ha alone
  % Injury Ob: 99%
[3]; Compound A TEA 17.5 g/ha alone
  % Injury LEFCH Ob: 10%
[3]; Compound A TEA 35 g/ha alone
  % Injury LEFCH Ob: 15%

## O=C(O)c1c(Cl)ccc2cc(Cl)cnc12 [Quinclorac]
[1]; 140 g/ha alone
  % Injury Ob: 0%
Cyperus species (CYPSS); [6]
  % Injury CYPES Ob: 0%
Cyperus species (CYPSS); [7]
  % Injury CYPES Ob: 0%
[2]; [6]
  % Injury MASCR Ob: 0%
[2]; [7]
  % Injury MASCR Ob: 0%
[3]; [6]
  % Injury LEFCH Ob: 0%
[3]; [7]
  % Injury LEFCH Ob: 0%
Cyperus iria L. (CYPIR); 140 g/ha alone
  % Injury Ob: 0%
